One assay concerns OXTR or V1aR receptors. The experiment in a line: Activity/selectivity at OXTR or V1aR receptors stated in words. The conditions noted are these: OXTR over V1aR.
Assay [1] deals with T1, OXTR (OT receptor) (Homo sapiens, UniProt P30559).
T1 sequence (P30559 1-389): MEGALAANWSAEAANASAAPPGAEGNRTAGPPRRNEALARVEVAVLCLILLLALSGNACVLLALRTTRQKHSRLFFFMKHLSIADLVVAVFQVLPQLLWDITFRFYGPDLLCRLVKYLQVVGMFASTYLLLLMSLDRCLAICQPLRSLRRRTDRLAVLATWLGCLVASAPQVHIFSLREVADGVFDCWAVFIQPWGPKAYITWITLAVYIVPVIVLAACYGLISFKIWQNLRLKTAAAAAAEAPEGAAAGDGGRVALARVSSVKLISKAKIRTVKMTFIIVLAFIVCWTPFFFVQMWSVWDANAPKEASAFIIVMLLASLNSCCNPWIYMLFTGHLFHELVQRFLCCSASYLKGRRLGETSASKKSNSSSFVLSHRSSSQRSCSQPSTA
The assay can be described thus: Competition radioligand binding assay, [3H]-oxytocin displacement. Further details: expressed in transfected cells; host or cells: HEK293. The note with it: membranes from OT receptor-expressing HEK293 cells, [3H]-oxytocin 10 nM. The method, then:
(§1) Competition Radioligand Binding Assay Experimental Procedures
(§2) Reactions were incubated for 90 min at 4 C to reach equilibrium, and terminated by rapid filtration over glass fibre filters (Whatman GF/A […]), and washing with ice-cold reaction buffer. Radioactivity was detected after soaking filters in Microscint 0 using a Microbeta2 2450 microplate-reader (Perkin Elmer).

Assay [2] addresses T2, V1aR (V1a receptor) (Homo sapiens, UniProt P37288).
T2 construct: expressed in transfected cells; host or cells: HEK293
The experiment in a line: Competition radioligand binding assay, [3H]-vasopressin displacement. The note with it: membranes from V1a receptor-expressing HEK293 cells, [3H]-vasopressin 2 nM. The procedure: as §1, §2

Assay [3] deals with T2, V1aR (V1a receptor). The assay can be described thus: HTRF-IP1 accumulation assay, antagonist assessment. It counts as cell-based. The conditions noted are these: against EC70 concentration of vasopressin. In general terms: TR-FRET usually uses a lanthanide donor and a delayed reading to cut background.
Assay [4] concerns the target T1, OXTR (OT receptor). The experiment in a line: cell-based. The note with it: for Emax: read-out: Emax (% OXT).
In assay [5] the target is T1, OXTR (OT receptor). The assay can be described thus: HTRF-IP1 accumulation assay, antagonist assessment. Further details: expressed in transfected cells; host or cells: HEK293. It counts as cell-based.
The target in assay [6] is T2, V1aR (V1a receptor). The assay can be described thus: HTRF-IP1 accumulation assay, agonist assessment. It counts as cell-based. The conditions noted are these: for EC50: V1a receptor-expressing HEK293 cells, IP1 accumulation, 1 h incubation. The method, then:
HTRF-IP1 Accumulation Assay Experimental Procedures
OT or V1a receptor-expressing HEK293 cells were seeded onto clear, poly-L-lysine (100 μg/mL)-coated 384 well plates at a density of 8.75×10^3 cells per well. Levels of receptor activation induced by compounds were assessed at concentrations ranging from 1 nM to 100 μM using the HTRF IP-One kit (CisBio International, Bagnolssur-Cze, France), according to manufacturers protocol. For agonist assessment, cells were incubated with compounds for 1 h prior to the addition of Ab-Cryptate and IP1-d2. The ligand concentration that induced a 50% maximal response (EC50) was used to evaluate functional effects across compounds. […] Cells were then incubated for a further 1 h, and Ab-Cryptate and IP1-d2 added.

Each structure is given as a SMILES string. Where a SMILES comes first, the peptide text is derived from it. Bridges are numbered along the chain shown (N, C = ends).

T2 sequence (P37288 whole entry, species assumed): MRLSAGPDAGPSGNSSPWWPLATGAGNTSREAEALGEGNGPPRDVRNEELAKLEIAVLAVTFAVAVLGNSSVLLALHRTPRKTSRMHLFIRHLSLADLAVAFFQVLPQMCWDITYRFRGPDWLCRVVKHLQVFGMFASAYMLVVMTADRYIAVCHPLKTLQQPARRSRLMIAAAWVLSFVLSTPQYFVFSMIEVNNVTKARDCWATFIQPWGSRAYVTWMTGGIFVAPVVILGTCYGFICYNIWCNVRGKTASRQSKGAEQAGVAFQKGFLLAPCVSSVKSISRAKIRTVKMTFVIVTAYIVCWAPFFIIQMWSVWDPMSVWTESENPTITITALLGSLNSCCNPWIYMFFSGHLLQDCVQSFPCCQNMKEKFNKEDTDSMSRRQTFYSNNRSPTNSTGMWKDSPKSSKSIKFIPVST

Broadly, the Ki is a dissociation constant, usually derived from enzyme kinetics or from competition with a known ligand. A higher Ki goes with weaker binding. For orientation: IC50 means the concentration at which inhibition is half-maximal. The EC50 is the concentration needed to bring the measured effect to its halfway point. Lower therefore signals a more potent agent. What is called Emax is the maximal effect, on the per cent scale that the assay sets. Take `CC[C@H](C)[C@@H]1NC(=O)[C@H](Cc2ccc(O)cc2)NC(=O)[C@@H](N)CSSC[C@@H](C(=O)N2CCC[C@H]2C(=O)N[C@@H](CC(C)C)C(N)=O)NC(=O)[C@H](CC(N)=O)NC(=O)[C@H](CCC(N)=O)NC1=O` [Metabolite A] (H-CYIQNCPL-NH2; disulfide 1-6): the “selectivity and activity compared with oxytocin” value in the assay on OXTR or V1aR receptors was “enhanced selectivity and activity”. The Ki is 138 nM on OXTR (OT receptor) [1] and 749 nM on V1aR (V1a receptor) [2]. The IC50 against V1aR (V1a receptor) [3] and on OXTR (OT receptor) [5] was more than 10000 nM in each case. Also, the EC50 on OXTR (OT receptor) [4] is 274 nM; at V1aR (V1a receptor) [6], more than 10000 nM. Moreover, the Emax at OXTR (OT receptor) [4] stood at 79.2%.
Consider `CC[C@H](C)[C@@H]1NC(=O)[C@H](Cc2ccc(O)cc2)NC(=O)[C@@H](N)CSSC[C@@H](C(=O)N2CCC[C@H]2C(N)=O)NC(=O)[C@H](CC(N)=O)NC(=O)[C@H](CCC(N)=O)NC1=O` [Metabolite B] (H-CYIQNCP-NH2; disulfide 1-6), for which the “selectivity and activity compared with oxytocin” value with OXTR or V1aR receptors was “enhanced selectivity and activity”. The inhibitory constant (Ki) worked out at 72.6 nM on OXTR (OT receptor) [1] and 105 nM on V1aR (V1a receptor) [2]. Further, the IC50 at V1aR (V1a receptor) [3] and against OXTR (OT receptor) [5] was more than 10000 nM throughout. Also, the results for the EC50 on OXTR (OT receptor) [4] and on V1aR (V1a receptor) [6] were 110 nM and more than 10000 nM, respectively. Further, the Emax on OXTR (OT receptor) [4] was 74.1%.
For the compound `CC[C@H](C)[C@@H]1NC(=O)[C@H](Cc2ccc(O)cc2)NC(=O)[C@@H](N)CSSC[C@@H](C(=O)N2CCC[C@H]2C(=O)N[C@@H](CC(C)C)C(=O)NCC(N)=O)NC(=O)[C@H](CC(N)=O)NC(=O)[C@H](CCC(N)=O)NC1=O` [Oxytocin, reference compound], the Emax at V1aR (V1a receptor) [6] (V1aR, relative to vasopressin) turned out to be 82%.

(Values after US11414459B2 (Kinoxis Therapeutics Pty Ltd, priority 2017, dated 2022).)
